The values below come from patent US20200060276A1, “THIAZOLE COMPOUND AND HERBICIDE” (OAT Agrio Co., Ltd., priority 2017, published 2020).

Where only a bound is given, the exact number is not on record here.

One may read the inhibition as the share of the control response that was lost under treatment.

Format in all cases: in vivo
Assay [1] concerns Echinochloa crus-galli (L.) P. Beauv. var. formosensis Ohwi. Briefly: Test for Herbicidal Effect in Flooding Treatment (#2), ECHDG at 2-2.5 leaf stage. Conditions: for ECHDG (2-2.5L) #2 herbicidal effect (growth inhibition rating 0-5): flooding treatment #2, 2-2.5 leaf stage; for inhibition at 200 g/ha: Echinochloa crus-galli, 504 h, flooding treatment (#2), ECHDG at 2-2.5 leaf stage, dose of 0.2 kg/ha, day 21, visual observation, read-out: growth inhibition effect; for ECHDG (2-2.5L) #2 herbicidal effect (growth inhibition grade): flooding treatment at 2-2.5 leaf stage, dose 0.2 kg/ha, visual observation on day 21. A digest of the protocol: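 Flooded muddy soil was seeded with the weed, and at 2–2.5 leaf stage compound in acetone/Tween 80 water was dropped on the water surface at 0.2 kg/ha. Plants were kept in a glasshouse and scored visually on day 21 from 0 (<10% growth inhibition) to 5 (≥90% or complete withering).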

Assay [2] shares this test system. Briefly: Test for Herbicidal Effect in Flooding Treatment (#1), ECHDG. Conditions: for ECHDG #1 herbicidal effect (growth inhibition rating 0-5): flooding treatment #1; for ECHDG #1 herbicidal effect (growth inhibition grade): flooding treatment at seeding, dose 2 kg/ha, visual observation on day 21. A digest of the protocol:
(§1)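 Flooded soil in cups was seeded 24 h after flooding, then treated with compound in acetone diluted with Tween 80-containing water, dropped onto the water surface at 2 kg/ha. After growth in a glasshouse, growth inhibition was scored visually on day 21 on a 0 (<10%) to 5 (≥90% or complete withering) scale.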

The test system of a further assay is Monochoria vaginalis. Kind of assay: Test for Herbicidal Effect in Flooding Treatment (#1), MONVA. As to conditions: for MONVA #1 herbicidal effect (growth inhibition rating 0-5): flooding treatment #1; for MONVA #1 herbicidal effect (growth inhibition grade): flooding treatment at seeding, dose 2 kg/ha, visual observation on day 21. The protocol: (#1) Test for Herbicidal Effect in Flooding Treatment: Styrol cups each having an opening diameter of 8 cm (about 52 cm^2) were respectively filled with soil (45 ml) which had been passed through a sieve (2 mm). Water (about 115 ml) was mixed with the soil such that the soil was flooded. After the soil stood still for 24 hours, Monochoria vaginalis, Echinochloa crus-galli (L.) P. Beauv. var. formosensis Ohwi, Cyperus difformis (umbrella sedge), and Scirpus juncoides were seeded. Each of the compounds of the present invention was dissolved in acetone, and the obtained product was then diluted with water containing Tween 80®. Each of the resultant chemical solutions was dropped on the entire surface of an associated one of treatment sections, so that each section was treated with 1 ml of the respective chemical solution (a dose of 2 kg/ha). After the treatment, the plants were grown in a glasshouse. On day 21, a survey was conducted on the herbicidal activity by visual observation, and evaluation was made according to the following criteria. 0: Growth inhibition effect is less than 10%. 1: Growth inhibition effect is equal to or greater than 10%, and less than 30%. 2; Growth inhibition effect is equal to or greater than 30%, and less than 50%. 3: Growth inhibition effect equal to or greater than 50%, and less than 70%. 4: Growth inhibition effect is equal to or greater than 70%, and less than 90%. 5: Growth inhibition effect is equal to or greater than 90%, or complete withering is achieved. ECHDG=Echinochloa crus-galli (L.) P. Beauv. var. formosensis Ohwi, MONVA=Monochoria vaginalis, SCIJU=Scirpus juncoides, CYMIC=Cyperus microiria.

A further assay concerns Scirpus juncoides. Kind of assay: Test for Herbicidal Effect in Flooding Treatment (#1), SCIJU. As to conditions: for SCIJU #1 herbicidal effect (growth inhibition rating 0-5): flooding treatment #1; for SCIJU #1 herbicidal effect (growth inhibition grade): flooding treatment at seeding, dose 2 kg/ha, visual observation on day 21. In short, it runs like this:
as §1

As to `[O-][S+](Cc1c(Cl)cccc1OC(F)F)c1ncc(Br)s1` (centres unmarked) [Compound 1B-20], in assay [1], the “ECHDG (2-2.5L) #2 herbicidal effect (growth inhibition rating 0-5)” value is 5 (Growth inhibition effect is equal to or greater than 90%, or complete withering is achieved). The “ECHDG #1 herbicidal effect (growth inhibition rating 0-5)” value in assay [2] is listed as 5 (Growth inhibition effect is equal to or greater than 90%, or complete withering is achieved). Moreover, the “MONVA #1 herbicidal effect (growth inhibition rating 0-5)” value with Monochoria vaginalis is 5 (Growth inhibition effect is equal to or greater than 90%, or complete withering is achieved). In addition, the “SCIJU #1 herbicidal effect (growth inhibition rating 0-5)” value in the assay on Scirpus juncoides is reported as 5 (Growth inhibition effect is equal to or greater than 90%, or complete withering is achieved).

As for `[O-][S+](Cc1c(Cl)cccc1OC(F)(F)C(F)(F)F)c1ncc(Br)s1` (centres unmarked) [Compound 1B-24], the “ECHDG (2-2.5L) #2 herbicidal effect (growth inhibition rating 0-5)” value in assay [1] is listed as 5 (Growth inhibition effect is equal to or greater than 90%, or complete withering is achieved). Moreover, in assay [2], the “ECHDG #1 herbicidal effect (growth inhibition rating 0-5)” value was 5 (Growth inhibition effect is equal to or greater than 90%, or complete withering is achieved). For the same compound, in the assay on Monochoria vaginalis, the “MONVA #1 herbicidal effect (growth inhibition rating 0-5)” value is given as 5 (Growth inhibition effect is equal to or greater than 90%, or complete withering is achieved). The “SCIJU #1 herbicidal effect (growth inhibition rating 0-5)” value with Scirpus juncoides is 5 (Growth inhibition effect is equal to or greater than 90%, or complete withering is achieved).

For the compound `[O-][S+](Cc1c(F)cccc1OCC(F)(F)C(F)F)c1ncc(Br)s1` (centres unmarked) [Compound 1B-26], the “ECHDG (2-2.5L) #2 herbicidal effect (growth inhibition rating 0-5)” value in assay [1] was 4 (Growth inhibition effect is equal to or greater than 70%, and less than 90%). In addition, the “ECHDG #1 herbicidal effect (growth inhibition rating 0-5)” value in assay [2] is on record as 5 (Growth inhibition effect is equal to or greater than 90%, or complete withering is achieved). Moreover, the “MONVA #1 herbicidal effect (growth inhibition rating 0-5)” value in the assay with Monochoria vaginalis is recorded as 5 (Growth inhibition effect is equal to or greater than 90%, or complete withering is achieved). In the assay on Scirpus juncoides, the “SCIJU #1 herbicidal effect (growth inhibition rating 0-5)” value is reported as 5 (Growth inhibition effect is equal to or greater than 90%, or complete withering is achieved).

On to `COc1cccc(Cl)c1CS(=O)(=O)c1ncc(Cl)s1` [Compound 1C-6], for which, in assay [1], the inhibition at 200 g/ha was at least 90% and the “ECHDG (2-2.5L) #2 herbicidal effect (growth inhibition grade)” value is 5 (Growth inhibition effect is equal to or greater than 90%, or complete withering is achieved). The “ECHDG #1 herbicidal effect (growth inhibition grade)” value in assay [2] is recorded as 5 (Growth inhibition effect is equal to or greater than 90%, or complete withering is achieved). Moreover, the “MONVA #1 herbicidal effect (growth inhibition grade)” value in the assay on Monochoria vaginalis is reported as 5 (Growth inhibition effect is equal to or greater than 90%, or complete withering is achieved). For the same compound, in the assay on Scirpus juncoides, the “SCIJU #1 herbicidal effect (growth inhibition grade)” value is given as 5 (Growth inhibition effect is equal to or greater than 90%, or complete withering is achieved).

For the compound `COc1cccc(C(F)(F)F)c1CS(=O)(=O)c1ncc(Cl)s1` [Compound 1C-7], the “ECHDG (2-2.5L) #2 herbicidal effect (growth inhibition grade)” value in assay [1] is recorded as 5 (Growth inhibition effect is equal to or greater than 90%, or complete withering is achieved). Also, in assay [2], the “ECHDG #1 herbicidal effect (growth inhibition grade)” value is 5 (Growth inhibition effect is equal to or greater than 90%, or complete withering is achieved). The “MONVA #1 herbicidal effect (growth inhibition grade)” value in the assay on Monochoria vaginalis is reported as 5 (Growth inhibition effect is equal to or greater than 90%, or complete withering is achieved). Besides, the “SCIJU #1 herbicidal effect (growth inhibition grade)” value in the assay on Scirpus juncoides was 5 (Growth inhibition effect is equal to or greater than 90%, or complete withering is achieved).

On to `CCOc1ccc(Cl)c(F)c1CS(=O)(=O)c1ncc(Cl)s1` [Compound 1C-32], for which the “ECHDG (2-2.5L) #2 herbicidal effect (growth inhibition grade)” value in assay [1] is 5 (Growth inhibition effect is equal to or greater than 90%, or complete withering is achieved). For the same compound, the “ECHDG #1 herbicidal effect (growth inhibition grade)” value in assay [2] is 5 (Growth inhibition effect is equal to or greater than 90%, or complete withering is achieved). The “MONVA #1 herbicidal effect (growth inhibition grade)” value with Monochoria vaginalis is 5 (Growth inhibition effect is equal to or greater than 90%, or complete withering is achieved). Besides, the “SCIJU #1 herbicidal effect (growth inhibition grade)” value in the assay with Scirpus juncoides is given as 5 (Growth inhibition effect is equal to or greater than 90%, or complete withering is achieved).

In the case of `CCOc1ccc(Cl)c(Cl)c1CS(=O)(=O)c1ncc(Cl)s1` [Compound 1C-33, 5-chloro-2-[(2-ethoxy-5,6-dichlorophenyl)(methanesulfonyl)]-1,3-thiazole], in assay [1], the inhibition at 200 g/ha was at least 90% and the “ECHDG (2-2.5L) #2 herbicidal effect (growth inhibition grade)” value was 5 (Growth inhibition effect is equal to or greater than 90%, or complete withering is achieved). Besides, in assay [2], the “ECHDG #1 herbicidal effect (growth inhibition grade)” value is given as 5 (Growth inhibition effect is equal to or greater than 90%, or complete withering is achieved). Further, the “MONVA #1 herbicidal effect (growth inhibition grade)” value with Monochoria vaginalis is given as 5 (Growth inhibition effect is equal to or greater than 90%, or complete withering is achieved). For the same compound, the “SCIJU #1 herbicidal effect (growth inhibition grade)” value in the assay on Scirpus juncoides is on record as 5 (Growth inhibition effect is equal to or greater than 90%, or complete withering is achieved).

As for `O=S(=O)(Cc1c(Cl)cccc1OC(F)F)c1ncc(Cl)s1` [Compound 1C-42], in assay [1], the “ECHDG (2-2.5L) #2 herbicidal effect (growth inhibition grade)” value is reported as 5 (Growth inhibition effect is equal to or greater than 90%, or complete withering is achieved). For the same compound, the “ECHDG #1 herbicidal effect (growth inhibition grade)” value in assay [2] was 5 (Growth inhibition effect is equal to or greater than 90%, or complete withering is achieved). Moreover, the “MONVA #1 herbicidal effect (growth inhibition grade)” value with Monochoria vaginalis was 5 (Growth inhibition effect is equal to or greater than 90%, or complete withering is achieved). The “SCIJU #1 herbicidal effect (growth inhibition grade)” value with Scirpus juncoides is 5 (Growth inhibition effect is equal to or greater than 90%, or complete withering is achieved).

As to `O=S(=O)(Cc1c(F)cccc1OC(F)F)c1ncc(Cl)s1` [Compound 1C-43], the “ECHDG (2-2.5L) #2 herbicidal effect (growth inhibition grade)” value in assay [1] is 5 (Growth inhibition effect is equal to or greater than 90%, or complete withering is achieved). Moreover, the “ECHDG #1 herbicidal effect (growth inhibition grade)” value in assay [2] was 5 (Growth inhibition effect is equal to or greater than 90%, or complete withering is achieved). For the same compound, the “MONVA #1 herbicidal effect (growth inhibition grade)” value with Monochoria vaginalis is 5 (Growth inhibition effect is equal to or greater than 90%, or complete withering is achieved). Besides, in the assay with Scirpus juncoides, the “SCIJU #1 herbicidal effect (growth inhibition grade)” value is given as 5 (Growth inhibition effect is equal to or greater than 90%, or complete withering is achieved).

In the case of `O=S(=O)(Cc1c(F)cc(F)cc1OC(F)F)c1ncc(Cl)s1` [Compound 1C-44], the “ECHDG (2-2.5L) #2 herbicidal effect (growth inhibition grade)” value in assay [1] was 5 (Growth inhibition effect is equal to or greater than 90%, or complete withering is achieved). In addition, the “ECHDG #1 herbicidal effect (growth inhibition grade)” value in assay [2] was 5 (Growth inhibition effect is equal to or greater than 90%, or complete withering is achieved). Further, in the assay with Monochoria vaginalis, the “MONVA #1 herbicidal effect (growth inhibition grade)” value is on record as 5 (Growth inhibition effect is equal to or greater than 90%, or complete withering is achieved). Further, the “SCIJU #1 herbicidal effect (growth inhibition grade)” value with Scirpus juncoides is on record as 5 (Growth inhibition effect is equal to or greater than 90%, or complete withering is achieved).

On to `O=S(=O)(Cc1c(OC(F)F)ccc(Cl)c1F)c1ncc(Cl)s1` [Compound 1C-45], for which the “ECHDG (2-2.5L) #2 herbicidal effect (growth inhibition grade)” value in assay [1] is on record as 5 (Growth inhibition effect is equal to or greater than 90%, or complete withering is achieved). Further, in assay [2], the “ECHDG #1 herbicidal effect (growth inhibition grade)” value was 5 (Growth inhibition effect is equal to or greater than 90%, or complete withering is achieved). Besides, the “MONVA #1 herbicidal effect (growth inhibition grade)” value in the assay with Monochoria vaginalis is given as 5 (Growth inhibition effect is equal to or greater than 90%, or complete withering is achieved). Also, in the assay on Scirpus juncoides, the “SCIJU #1 herbicidal effect (growth inhibition grade)” value is listed as 5 (Growth inhibition effect is equal to or greater than 90%, or complete withering is achieved).

With `O=S(=O)(Cc1c(Cl)cccc1OC(F)(F)F)c1ncc(Cl)s1` [Compound 1C-49], in assay [1], the “ECHDG (2-2.5L) #2 herbicidal effect (growth inhibition grade)” value is reported as 5 (Growth inhibition effect is equal to or greater than 90%, or complete withering is achieved). Further, in assay [2], the “ECHDG #1 herbicidal effect (growth inhibition grade)” value was 5 (Growth inhibition effect is equal to or greater than 90%, or complete withering is achieved). Further, the “MONVA #1 herbicidal effect (growth inhibition grade)” value in the assay with Monochoria vaginalis is reported as 5 (Growth inhibition effect is equal to or greater than 90%, or complete withering is achieved). Further, the “SCIJU #1 herbicidal effect (growth inhibition grade)” value in the assay on Scirpus juncoides is given as 5 (Growth inhibition effect is equal to or greater than 90%, or complete withering is achieved).
